The values below come from publication PMC12684298, “The Parkinson's Disease Drug Tolcapone and Analogues are Potent Glycomimetic Lectin Inhibitors of Pseudomonas aeruginosa LecA” (Angewandte Chemie (International Ed. in English), 2025).

The target in experiment [1] is T1, LecA (Pseudomonas aeruginosa, UniProt Q05097).
T1 construct: made in house; host or cells: E. coli BL21 (DE3), plasmid pET25pa11
Description: Library screening using the FP competitive binding assay (three concentrations). The source says:
Next, we screened a library of catechols from F. Hoffmann‐La Roche, the developer of Tolcapone, in the competitive binding assay to establish a structure–activity relationship. To this end, two sets of compounds with a molecular cut‐off of 500 Da were chosen: a first set of 342 compounds contained derivatives of Tolcapone, while a second set of 3222 compounds comprised catechols covering a larger chemical space. […] Tests were run in a 384‐well‐plate format at three concentrations (first set at 125, 32, and 4 µM, second set at 100, 25, and 3 µM) in presence of 10% DMSO and 250 µM 2‐mercaptoethanol to prevent interference by a potential unspecific reactivity of electron‐rich catechols as established earlier.^[ [30] ^]
The screening followed the same assay by Joachim et al.^[2] as described above. Compounds in DMSO (1 µL with the appropriate concentration) were plated using a robot into black 384-well microtiter plates (Greiner Bio-One, Germany, cat no 781900) by the Roche compound handling facility at four replicates per concentration and compound. A mixture of LecA, sulfo-Cy5-Gal and 2-mercaptoethanol in TBS/Ca (20 mM Tris, 147 mM NaCl, 2.6 mM KCl at pH 7.4 supplemented with 1 mM CaCl2) with DMSO was added at HIPS. Final concentrations in both screening rounds were the following: 5 µM LecA, 250 µM 2-mercaptoethanol, 10 nM sulfo-Cy5-Gal and 10% DMSO. Final concentrations of the 342 compounds of the first screening round were 125 µM, 32 µM and 4 µM. The 3222 compounds of the second screening round were tested at final concentrations of 100 µM, 25 µM and 3 µM. The plate was sealed (EASYseal, Greiner Bio-One, cat no 676001), briefly centrifuged and incubated at room temperature in the dark under shaking conditions. Fluorescence intensities were measured after 1 h and 24 h using a PheraStar FS plate reader (BMG Labtech GmbH, Germany) with spectral filters for excitation at 590 nm and emission at 675 nm and polarization was calculated after blank values of 5 µM LecA in TBS/Ca buffer with 250 µM 2-mercaptoethanol and 10% DMSO were subtracted from the test compounds. The data were analysed using the MARS Data Analysis software. […] All stated values are the average including the standard deviation based on three replicates for 100 µM and four replicates in the case of compounds at 125 µM.

Experiment [2] deals with T1, LecA. Description: biochemical. Type of experiment: binding. As to the method:
Therefore, we focused our attention on commercially available nitro‐catechols. Prominent derivatives are inhibitors of the enzyme catechol‐O‐methyltransferase (COMT) and approved drugs for the treatment of Parkinson's disease. Four commercial COMT inhibitors were thus evaluated in a previously reported competitive binding assay based on fluorescence polarisation (FP, Table 1, Figure 1).^[ [32] ^]
The competitive binding assay was performed in analogy to Joachim et al.^[2] 10 µL of a solution containing LecA (40 µM) and sulfo-Cy5-Gal (20 nM, synthesis described in Kuhaudomlarp, Siebs et al.^[5]) in TBS/Ca buffer (20 mM Tris, 147 mM NaCl, 2.6 mM KCl at pH 7.4 supplemented with 1 mM CaCl2) were distributed in into wells of a black 384-well microtiter plate (Greiner Bio-One, Germany, cat no 781900). Then, 10 µL of serial dilutions of compounds (3 mM to 1.5 µM, dilution factor 0.5) in TBS/Ca with 40% DMSO were added in technical triplicates. Final concentrations after mixing were the following: 1.5 mM – 0.73 µM compound, 20 µM LecA, 10 nM sulfo-Cy5-Gal and 20% DMSO. The plate was sealed (EASYseal, Greiner Bio-One, cat no 676001), briefly centrifuged and incubated at room temperature in the dark under shaking conditions. Fluorescence intensity was measured after 1 h and 4 h using a PheraStar FS plate reader (BMG Labtech GmbH, Germany) with spectral filters for excitation at 590 nm and emission at 675 nm and polarization was calculated after blank values of 20 µM LecA in TBS/Ca buffer with 20% DMSO were subtracted from the test compounds. The data were analysed using the four-parameter variable slope model of the MARS Data Analysis software. The top and bottom plateau were assigned based on the control compound methyl α-d-galactoside and the data was reanalysed with these fixed values. If not mentioned otherwise, the experiment was repeated at least three times for each compound and the average and standard deviation are given. In case Triton X-100 was used it was added to the TBS/Ca buffer before the assay.

In experiment [3] the target is T1, LecA. Nature of the experiment: biochemical. The settings on record: ITC. Type of experiment: binding. As to the method: Isothermal titration calorimetry was performed on a MicroCal PEAQ-ITC (Malvern Panalytical) at 25 °C and 750 rpm stirring. The cell was filled with LecA (75 - 111 µM) in TBS/Ca buffer (20 mM Tris, 147 mM NaCl, 2.6 mM KCl at pH 7.4 supplemented with 1 mM CaCl2) with 20% DMSO and titrated with ligand (0.75 mM or 1.5 mM, 19 injections) in the same buffer. Data were analysed using the one binding site model in the MicroCal PEAQ-ITC analysis software (Malvern Panalytical). The first injection of each titration was excluded and the baseline subtracted for the final figures. Three titration per compound were performed and the average as well as standard deviation are given.

Setting [4] is: read-out: Activity [%] (% inhibition relative to 500 µM pNPGal).
Setting [5] is: IC50, extended dose-response analysis, 20% DMSO, no 2-mercaptoethanol, three experiments.
[6] abbreviates: individual replicate (Repl. 1-3).

Several values for one entry are separate records, joined by “and”; a condition that tells them apart may be missing. Identical values can stand only once. Like-named read-outs stand apart in the source and are kept apart here.

T1 sequence (Q05097 whole entry): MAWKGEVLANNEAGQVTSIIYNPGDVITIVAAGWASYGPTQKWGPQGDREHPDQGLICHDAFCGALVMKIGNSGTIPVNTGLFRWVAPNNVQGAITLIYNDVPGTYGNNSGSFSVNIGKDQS

In general, inhibition refers to the drop in the measured response relative to a control, in per cent. As to `COc1cc(C(=O)c2ccc(C)cc2)cc([N+](=O)[O-])c1OC` [compound 5], the “Activity [%] (% inhibition relative to 500 µM pNPGal)” value at LecA [1] (compound 125 µM (marked *), 10% DMSO, 250 µM 2-mercaptoethanol, four replicates) is “complete lack of activity”. For the same compound, at LecA [1] (setting [4]), the inhibition at 125 µM is -5.3 ± 7.6%.

For `Cc1ccc(C(=O)c2ccc(O)c(O)c2)cc1` [compound 6], on LecA [1] (setting [4]), the inhibition at 100 µM came out at 13.8 ± 3.9%. Still for that read-out and setting: with `Cc1ccc(C(=O)c2cc(O)c(O)c(O)c2)cc1` [compound 7] the figure was 7.5 ± 4.9%; with `Cc1ccc(C(=O)c2cc(N)c(O)c(O)c2)cc1` [compound 8], 7.9 ± 3.4%; with `Cc1ccc(C(=O)c2cc(O)c(O)c(C(=O)O)c2)cc1` [compound 9], 2.1 ± 2.9%. As for `CC(=O)Nc1cc(C(=O)c2ccc(C)cc2)cc(O)c1O` [compound 10], at LecA [1] (setting [4]), the inhibition at 100 µM was determined as 20.1 ± 2.8%. In the case of `Cc1ccc(C(=O)c2cc(O)c(O)c(C(N)=O)c2)cc1` [compound 11], the inhibition at 100 µM at LecA [1] (setting [4]) stood at 21.8 ± 3.4%.

As to `Cc1ccc(C(=O)c2cc(O)c(O)c(C#N)c2)cc1` [compound 12], the inhibition at 100 µM at LecA [1] (setting [4]) was 20.2 ± 4.8%. For orientation: IC50 means the point on the concentration scale where inhibition reaches its midpoint. Take `Cc1ccc(C(=O)c2cc(O)c(O)c(-c3nc(C)no3)c2)cc1` [compound 13]: the IC50 against LecA [2] (setting [5]) was determined as 346 ± 36 µM. At LecA [1] (setting [4]), the inhibition at 100 µM amounted to 57.7 ± 3.8%. Consider `Cc1ccc(C(=O)c2cc(O)c(O)c(-c3nnn[nH]3)c2)cc1` [compound 14], for which the inhibition at 100 µM on LecA [1] (setting [4]) worked out at 0.8 ± 8.7%. By Kd is commonly meant the equilibrium constant for the complex coming apart. Consider `Cc1ccc(C(=O)c2cc([N+](=O)[O-])c(O)c(O)c2Cl)cc1` [compound 15], for which the IC50 stood at 58 µM against LecA [2] (setting [5]); 67 µM at LecA [2] (IC50 in presence of 0.01% Triton X-100, FP assay, 0.01% Triton X-100, one replicate); 56 µM on LecA [2] (IC50 in presence of 0.057% Triton X-100, FP assay, 0.057% Triton X-100, one replicate). Besides, the inhibition at 100 µM at LecA [1] (setting [4]) worked out at 96.7 ± 4%. The “N (sites)” value at LecA [3] (average of three titrations) was 0.92 ± 0.05 and 0.922; at LecA [3] (setting [6]) it was 0.947 and 0.957 and 0.862. The ΔG is -6.74 ± 0.14 kcal/mol and -6.74 kcal/mol on LecA [3] (average of three titrations); -6.6 kcal/mol and -6.88 kcal/mol and -6.74 kcal/mol on LecA [3] (setting [6]). The ΔH at LecA [3] (average of three titrations) was -5.45 ± 0.359 kcal/mol and -5.45 kcal/mol; on LecA [3] (setting [6]), -5.76 kcal/mol and -5.04 kcal/mol and -5.52 kcal/mol. Also, at LecA [3] (setting [6]), the “-TΔS” value is -0.837 kcal/mol and -1.84 kcal/mol and -1.22 kcal/mol. Also, the Kd at LecA [3] (KD, 25 °C, 20% DMSO, average of three titrations) is 12 µM; on LecA [3] (KD, individual replicate (Repl. 1-3)), 15.1 µM and 9.3 µM and 11.5 µM.

As for `Cc1noc(-c2cc(O)c(O)c([N+](=O)[O-])c2)n1` [compound 16], at LecA [1] (setting [4]), the inhibition at 100 µM was found to be 9.4 ± 7.5%. Same read-out and setting: to `Nc1cc(Cl)ccc1-c1nc(-c2cc(O)c(O)c([N+](=O)[O-])c2)cs1` [compound 17] belongs 15.2 ± 8.7%; to `Cn1nc(-c2cc(O)c(O)c([N+](=O)[O-])c2)cc1O` [compound 18], 1.9 ± 3.3%. With `CC(=O)c1cc(O)c(O)c([N+](=O)[O-])c1` [compound 19], the inhibition at 100 µM on LecA [1] (setting [4]) was determined as 31.5 ± 3.8%.

In the case of `CCOC(=O)c1cc(O)c(O)c([N+](=O)[O-])c1` [compound 20], the inhibition at 100 µM on LecA [1] (setting [4]) amounted to 14 ± 4.2%. Same read-out and setting: to `CCCCOC(=O)c1cc(O)c(O)c([N+](=O)[O-])c1` [compound 21] belongs 22.9 ± 1.8%; to `O=C(Nc1ccc(F)cc1)c1cc(O)c(O)c([N+](=O)[O-])c1` [compound 22], 8.7 ± 3.3%. Still for that read-out and setting: with `O=C(NCc1ccccc1)c1cc(O)c(O)c([N+](=O)[O-])c1` [compound 23] the figure was 26.6 ± 4.2%; with `O=C(NC12CC3CC(CC(C3)C1)C2)c1cc(O)c(O)c([N+](=O)[O-])c1` [compound 24], 10 ± 3.6%.

Regarding `O=C(c1cc(O)c(O)c([N+](=O)[O-])c1)N1CCCCC1` [compound 25], the inhibition at 100 µM at LecA [1] (setting [4]) was determined as 5 ± 11.8%. As to `O=C(c1cc(O)c(O)c([N+](=O)[O-])c1)c1ncc[nH]1` [compound 26], at LecA [1] (setting [4]), the inhibition at 100 µM came out at 16.8 ± 3.8%. Turning to `O=C(c1cc(O)c(O)c([N+](=O)[O-])c1)C1CCCCC1` [compound 27], the inhibition at 100 µM at LecA [1] (setting [4]) turned out to be 23.4 ± 3.6%.

For `O=C(c1cc(O)c(O)c([N+](=O)[O-])c1)c1nc2ccccc2[nH]1` [compound 28], the inhibition at 100 µM at LecA [1] (setting [4]) was determined as 26.7 ± 3.6%. Still for that read-out and setting: with `O=C(c1ccccc1)c1cc(O)c(O)c([N+](=O)[O-])c1` [compound 29] the figure was 41.8 ± 7.3%. In the case of `O=[N+]([O-])c1ccc(O[C@@H]2O[C@H](CO)[C@H](O)[C@H](O)[C@H]2O)cc1` [pNPGal, para‐nitrophenyl β‐D‐galactoside, reference compound], the Kd on LecA [3] (25 °C, 20% DMSO, average of three titrations, read-out: KD) stood at 10.1 µM. At LecA [3] (average of three titrations), the “N (sites)” value is 0.81 ± 0.09 and 0.810; the ΔG was -6.84 ± 0.072 kcal/mol and -6.84 kcal/mol. At LecA [3] (setting [6]), the “-TΔS” value was 5.83 kcal/mol and 4.64 kcal/mol and 5.02 kcal/mol; the “N (sites)” value was 0.722 and 0.801 and 0.908; the ΔG was -28.4 kJ/mol (2×) and -28.9 kJ/mol; the ΔH was -12.6 kcal/mol and -11.5 kcal/mol and -11.8 kcal/mol. Moreover, the Kd at LecA [3] (individual replicate (Repl. 1-3), read-out: KD) was 10.8 µM (2×) and 8.8 µM.
